Measured values: US5607953A, “Butenoic or propenoic acid derivative” (Eisai Co., Ltd., priority 1988, dated 1997)

Legend:
[1] = test system: anesthetized thoracotomized dog; assay: Heart rate lowering and coronary bloodflow increasing effects upon anesthetized thoracotomized dog; format: in vivo; details: compounds of group (I), 0.3 mg/kg intravenous, anesthetized mongrel; for Coronary bloodflow (CBF): rate of increase in coronary bloodflow: left circumflex branch
Experimental: Heart Rate Lowering and Coronary Bloodflow Increasing Effects Upon Anesthetized Thoracotomized Dog
The chest of a grown-up mongrel was opened under enflurane inhalation anesthesia. The blood flow of the coronary artery was determined by setting a probe of an electromagnetic bloodflowmeter at its left circumflexbranch, while the heart rate was determined by triggering the wave form of the pressure in its left ventricle and counting it with a tachometer.
The intravenous administration of a test compound (in a dose of 0.3 mg per kg of the weight of the anesthetized mongrel) was carried out by using a catheter inserted into its femoral […].
The effect of increasing the bloodflow of the circumflex branch of the left coronary artery or the heart rate lowering effect was evaluated based on the difference between the bloodflow or the heart rate after the administration and that before the administration according to the following criteria.

[2] = Acute toxicity test (intravenous injection) using a mouse; details: in vivo
Text: The representative compounds of the present invention were examined by an ordinary acute toxicity test (intravenous injection) using a mouse to obtain the results shown in Table 4.

Row | Structure (SMILES) | Heart rate (HR): rate of reduction in heart rate [1] | Coronary bloodflow (CBF): rate of increase in coronary bloodflow [1] | LD50 [2] [mg/kg]
1 | CN(CCCNC(=O)C/C=C/c1ccc(-n2ccnc2)cc1)CCc1ccc2c(c1)OCO2 [Compound K, (E)-N-[3-((N'-(2-(3,4-Methylenedioxyphenyl)-ethyl)-N'-methyl)amino)propyl]-4-(4-(1H-imidazol-1-yl)phenyl)-3-butenamide] | ++ (11-20%) | + (1-100%) | –
2 | COc1ccc(CCN(C)CCCNC(=O)C/C=C/c2ccc(-n3cnc(C)c3)cc2)cc1OC [Compound L, (E)-N-[3-((N'-(2-(3,4-Dimethoxyphenyl)ethyl)-N'-methyl)amino)propyl]-4-(4-(4-methyl-1H-imidazol-1-yl)phenyl)-3-butenamide] | + (1-10%) | + (1-100%) | 92
3 | COc1ccc(CCN(C)CCCNC(=O)C/C=C/c2ccc(-n3cncn3)cc2)cc1OC [Compound M, (E)-N-[3-((N'-(2-(3,4-Dimethoxyphenyl)ethyl)-N'-methyl)amino)propyl]-4-(4-(1H-1,2,4-triazol-1-yl)phenyl)-3-butenamide] | + (1-10%) | + (1-100%) | 120
